Reference: publication PMC9465178, “Cinnamaldehyde derivatives act as antimicrobial agents against Acinetobacter baumannii through the inhibition of cell division” (Frontiers in Microbiology, 2022)
Converted amounts (≈) assume the structure as drawn.

Assays:
A. baumannii ATCC 19606 = experiment: Cell division phenotype by light microscopy; type: cell-based, Acinetobacter baumannii; details: LXC compounds at 2 × MIC
Experimental: Morphological changes of bacteria when exposed to the compounds were assessed microscopically using the assay as previously described ([Chai et al., 2020]). Eppendorf® tubes were set up with A. baumannii ATCC 19606 as described for the time-kill assays. At time 0, 1, 3, 6, and 18 h, an aliquot of the bacterial suspension (1 μL) was transferred onto a glass slide and viewed under a light microscope (Olympus CX33®) at 100 × magnification. Representative images were captured using JENOPTIK GRYPHAX® imaging.
A 1 μL aliquot was taken out at varying timepoints (0, 1, 3, 6, and 18 h) and imaged by light microscopy. The images for 6 h are depicted here. […] The white arrow indicates “grooving” site, an indication of where separation of daughter cells should take place. Scale bar is 50 μm.
Four of the compounds (LXC 31, 33, 35 and 41) were tested at 1× and 2× their minimum inhibitory concentration (MIC) whereas LXC 36 and 43 were tested at 2× and 4× MIC. The phenotypic changes in A. baumannii morphology were analysed under a light microscope (100× magnification) at time 0, 1, 3, 6 and 18 h. Scale bar is 50 µm.

E. coli FtsZ = details: FtsZ from E. coli, 120 μg/mL; ref Li et al., 2015a; cited from earlier work
human red blood cells = experiment: Hemolysis assay; type: cell-based; details: fresh human RBCs, 1 h, 37°C, concentrations up to 4 × MIC (concentration in the value words)
Experimental: The hemolysis assay was performed using fresh human red blood cells (RBCs). […] These were performed in quadruplicate. Thereafter, 192 μL RBCs were added into all wells and the plates were incubated at 37°C under constant shaking (100 rpm) for 1 h. RBCs were precipitated by centrifugation of the plates (1,000× g for 3 min). An aliquot (100 μL) of each supernatant was transferred into a new 96-microwell plate and the A450 nm was determined using a PerkinElmer Enspire® plate reader. The fraction of intact RBC for each sample was determined as fraction of the intact RBCs for the sample without the addition of compounds (set at 100%) and plotted as a function of compound concentration.
A 1% (v/v) Triton X-100 was used to indicate complete RBC lysis (^‡). […] The assays were performed in quadruplicates. The plates were incubated at 37°C while constantly shaking at 100 rpm for 1 h. Intact RBCs were removed by centrifugation and the presence of hemolytic products in the supernatant were determined by measuring the absorbance at A450 nm. The results are presented in mean ± SEM. Statistical analysis was performed using one-way ANOVA and the asterisks (*) represent statistical significance (*p < 0.05; **p < 0.005; ***p < 0.0005; ****p < 0.0001).

AbFtsZ = AbFtsZ polymerization, 90° light scattering; type: biochemical, Acinetobacter baumannii; details: test compound at 128 μg/mL, AbFtsZ 0.15 mg/mL, 1 mM GTP, 8°C
Experimental: Effects on inhibition of the cinnamaldehyde derivatives on AbFtsZ polymerization were analyzed using the assay as previously described ([Chai et al., 2020]) with the following modifications. A reaction mix was prepared in a cold Eppendorf® tube where AbFtsZ (0.15 mg/mL) was mixed with the test compound at the desired concentration and a polymerization buffer diluted from a double strength buffer to give a final concentration of 25 mM PIPES pH 6.8, 50 mM KCl and 10 mM MgCl2. The reaction mix was prepared such that the DMSO concentration remained constant at 2% (v/v). The mix was then added into a quartz cuvette (PerkinElmer®, United Kingdom), and placed in a PerkinElmer® LS 55 fluorometer under the fixed condition of excitation/emission at 350/350 nm, slit width < 2 nm, a 1 s read interval. The temperature was calibrated to remain constant at 8°C. The fluorescence was followed for 300 sec to allow equilibration, then polymerization was initiated with the addition of 1 mM GTP. A separate negative control was prepared where 1 mM GDP was added instead of the GTP. The reaction was followed for 600 s.
(A–F) AbFtsZ (0.15 mg/mL) was pre-incubated in polymerization buffer (25 mM PIPES pH 6.8, 50 mM KCl and 10 mM MgCl2) together with the test compound at 128 μg/mL for 300 s. Polymerization was then initiated with the addition of 1 mM GTP. The fluorescence was measured as a function of time at excitation and emission wavelengths of A350 and A350 nm, respectively, and a slit width of <2 nm. The blue line in each panel indicates the addition of 2.5% (v/v) DMSO, the pink line indicates the test compound tested at 128 μg/mL and the gray line represents the addition of 1 mM GDP (as negative control) instead of GTP.

E. coli ATCC 25922 = test system: E. coli ATCC 25922; design: method as in Li et al., 2015a,b; details: ref Li et al., 2015a,b; cited from earlier work
[1] = test system: Pseudomonas aeruginosa ATCC 27853; design: method as in Li et al., 2015a,b; details: ref Li et al., 2015a,b; cited from earlier work

| SMILES | Time until elongated phenotype is seen (A. baumannii ATCC 19606) | Effect on FtsZ polymerization, light scattering (E. coli FtsZ) | Hemolytic activity (human red blood cells) | Inhibition of AbFtsZ polymerization (AbFtsZ) | MIC (E. coli ATCC 25922) | MIC [1] |
| --- | --- | --- | --- | --- | --- | --- |
| Cc1nc2ccccc2n1C(=O)/C=C/c1ccc(Cl)cc1 [Compound 3] | ≤ 3 h | impaired polymerization | – | – | – | – |
| Cc1nc2ccccc2n1C(=O)/C=C/c1ccc(Br)cc1 [Compound 4] | ≤ 3 h | – | devoid of hemolytic activity even at the highest concentration tested (4 × MIC, Figure 9D) | – | – | – |
| Cc1nc2ccccc2n1C(=O)/C=C/c1ccc(F)cc1 [Compound 2] | ≤ 3 h | impaired polymerization | – | – | – | – |
| Cc1nc2ccccc2n1C(=O)/C=C/c1ccc(Cl)cc1Cl [Compound 6] | ≤ 3 h | impaired polymerization | – | strongest activity observed with compound 5, followed by compounds 1 and 6 | – | – |
| Cc1nc2ccccc2n1C(=O)/C=C/c1ccccc1 [Compound 1] | > 3 h | – | – | strongest activity observed with compound 5, followed by compounds 1 and 6 | 128 µg/mL (≈ 488 µM) | 128 µg/mL (≈ 488 µM) |
| COc1ccc(/C=C/C(=O)n2c(C)nc3ccccc32)cc1OC [Compound 5] | – | – | only non-lytic at a low concentration (0.25 × MIC, Figure 9E) | strongest activity | – | – |
